Experimental data published in ChEMBL document CHEMBL5247647, “Phenothiazine-Based LSD1 Inhibitor Promotes T-Cell Killing Response of Gastric Cancer Cells” (J Med Chem, 2023).
Calls of active or inactive are those of the source. The calls are words filed in the database; no cut-off is given here.

Key:
[1] = biological target: T1, Lysine-specific histone demethylase 1A (Homo sapiens, UniProt O60341); experiment: Inhibition of recombinant LSD1 (unknown origin) expressed in Escherichia coli BL21 (DE3) using H3K4me2 peptide as substrate incubated for 30 mins by fluorescence based microplate reader assay
MFC [2] = experiment: Antiproliferative activity against mouse MFC cells assessed as inhibition of cell proliferation incubated for 48 hrs by SRB assay; format: functional, cell-based
[3] = biological target: T1, Lysine-specific histone demethylase 1A; experiment: Inhibition of human LSD1 in human LSD1 knockout BGC-823 cells assessed as effect on H3K4me3 methylation at 5 to 20 uM incubated for 5 days by Western blot anlaysis; format: cell-based; details: dose 5-20 µM, time 5.0 day
[4] = Toxicity against 615 mouse xenografted with mouse MFC cells in assessed as pathological changes in spleen at 10 to 50 mg/kg, po for 14 days by Hematoxylin and Eosin staining based microscopic analysis; format: organism-based; details: in vivo, 336 h, dose 10-50 mg/kg, time 14 day
[5] = biological target: T1, Lysine-specific histone demethylase 1A; experiment: Inhibition of human LSD1 in human LSD1 knockout BGC-823 cells assessed as effect on H3K4me2 methylation at 5 to 20 uM incubated for 5 days by Western blot anlaysis; format: cell-based; details: dose 5-20 µM, time 5.0 day
[6] = biological target: T1, Lysine-specific histone demethylase 1A; experiment: Inhibition of human LSD1 in human BGC-823 cells assessed as inhibition of H3K4me1 demethylation at 5 to 20 uM incubated for 5 days by Western blot anlaysis; format: cell-based; details: dose 5-20 µM, time 5.0 day
[7] = Toxicity against 615 mouse xenografted with mouse MFC cells in assessed as pathological changes in lungs at 10 to 50 mg/kg, po for 14 days by Hematoxylin and Eosin staining based microscopic analysis; format: organism-based; details: in vivo, 336 h, dose 10-50 mg/kg, time 14 day
MFC [8] = experiment: Antitumor activity against mouse MFC cells xenografted in 615 mouse assessed as increase in IL-2 expression level in tumor at 10 to 50 mg/kg, po for 14 days by ELISA; format: functional, organism-based; details: dose 10-50 mg/kg, time 14.0 day
[9] = Toxicity against 615 mouse xenografted with mouse MFC cells in assessed as pathological changes in liver at 10 to 50 mg/kg, po for 14 days by Hematoxylin and Eosin staining based microscopic analysis; format: organism-based; details: in vivo, 336 h, dose 10-50 mg/kg, time 14 day
BGC-823 [10] = experiment: Anticancer activity against human LSD1 knockout BGC-823 cells assessed as increase in CD3/CD28 activated T-cell killing response at 5 to 20 uM incubated for 5 days by DAPI staining based assay; format: functional; details: dose 5-20 µM, time 5.0 day
BGC-823 [11] = experiment: Downregulation of PD-L1 expression in human LSD1 knockout BGC-823 cells transfected with […] K661A mutant plasmid at 20 uM incubated for 5 days by Western blot anlaysis; format: functional, cell-based; details: time 5.0 day
MAO-A = biological target: T2, MAO-A (Homo sapiens, UniProt P21397); experiment: Inhibition of recombinant human MAO-A at 10 uM
T2 sequence (P21397 whole entry): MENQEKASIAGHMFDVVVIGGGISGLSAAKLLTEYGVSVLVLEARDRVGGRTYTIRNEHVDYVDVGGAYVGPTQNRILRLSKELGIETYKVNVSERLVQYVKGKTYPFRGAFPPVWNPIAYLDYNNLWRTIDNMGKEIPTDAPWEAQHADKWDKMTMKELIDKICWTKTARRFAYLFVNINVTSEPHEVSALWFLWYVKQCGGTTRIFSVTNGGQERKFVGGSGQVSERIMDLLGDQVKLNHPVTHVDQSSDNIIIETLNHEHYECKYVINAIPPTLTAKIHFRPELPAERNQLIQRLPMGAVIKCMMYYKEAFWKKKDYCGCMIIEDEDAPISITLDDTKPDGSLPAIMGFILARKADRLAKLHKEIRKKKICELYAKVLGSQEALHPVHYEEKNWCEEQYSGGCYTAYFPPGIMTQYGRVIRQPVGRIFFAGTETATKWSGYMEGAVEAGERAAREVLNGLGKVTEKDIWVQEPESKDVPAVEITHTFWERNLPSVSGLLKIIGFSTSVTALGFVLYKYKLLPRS

BGC-823 [12] = experiment: Downregulation of PD-L1 expression in human LSD1 knockout BGC-823 cells at 5 to 20 uM incubated for 5 days by Western blot anlaysis; format: functional, cell-based; details: dose 5-20 µM, time 5.0 day
[13] = Toxicity against 615 mouse xenografted with mouse MFC cells in assessed as pathological changes in kidney at 10 to 50 mg/kg, po for 14 days by Hematoxylin and Eosin staining based microscopic analysis; format: organism-based; details: in vivo, 336 h, dose 10-50 mg/kg, time 14 day
[14] = biological target: T1, Lysine-specific histone demethylase 1A; experiment: Inhibition of human LSD1 in human BGC-823 cells assessed as inhibition of H3K4me3 demethylation at 5 to 20 uM incubated for 5 days by Western blot anlaysis; format: cell-based; details: dose 5-20 µM, time 5.0 day
MFC [15] = experiment: Antitumor activity against mouse MFC cells xenografted in 615 mouse assessed as increase in IFNgamma mRNA expression level in tumor at 10 to 50 mg/kg, po for 14 days; format: functional, organism-based; details: dose 10-50 mg/kg, time 14.0 day
BGC-823 [16] = experiment: Anticancer activity against human BGC-823 cells assessed as increase in CD3/CD28 activated T-cell killing response by measuring IFNgamma level at 5 to 20 uM incubated for 5 days by Sandwich ELISA; format: functional, cell-based; details: dose 5-20 µM, time 5.0 day
BGC-823 [17] = experiment: Anticancer activity against human BGC-823 cells assessed as increase in CD3/CD28 activated T-cell killing response by measuring TNFalpha level at 5 to 20 uM incubated for 5 days by Sandwich ELISA; format: functional, cell-based; details: dose 5-20 µM, time 5.0 day
[18] = biological target: Programmed cell death protein 1/Programmed cell death 1 ligand 1 (Homo sapiens) (UniProt Q15116+Q9NZQ7); experiment: Inhibition of PD-L1/PD-1 interaction in human BGC-823 cells assessed as decrease in binding of PD-1 to cell membrane at 5 to 20 uM incubated for 5 days followed by recombinant PD-1-Fc protein addition by confocal microscopy analysis; format: cell-based; details: dose 5-20 µM, time 5.0 day
BGC-823 [19] = experiment: Downregulation of PD-L1 expression in human BGC-823 cells at 5 to 20 uM incubated for 5 days by Western blot anlaysis; format: functional, cell-based; details: dose 5-20 µM, time 5.0 day
BGC-823 [20] = experiment: Anticancer activity against human BGC-823 cells assessed as increase in CD3/CD28 activated T-cell killing response at 5 to 20 uM incubated for 5 days by DAPI staining based assay; format: functional; details: dose 5-20 µM, time 5.0 day
MFC [21] = experiment: Antitumor activity against mouse MFC cells xenografted in 615 mouse assessed as increase in infiltration of CD3+ T cells into tumor at 10 to 50 mg/kg, po for 14 days by immunohistochemistry; format: functional, organism-based; details: dose 10-50 mg/kg, time 14.0 day

IC50 [1]: 247 nM | inhibition [3]: inactive | inhibition [5]: inactive | inhibition [6]: Active | inhibition at 10 µM (MAO-A): < 10% | inhibition [14]: inactive
SMILES: c1ccc2c(c1)Sc1ccccc1N2CCN1CCOCC1
Activity (MFC [2]): inactive | Activity [4]: Non-Toxic | Activity [7]: Non-Toxic | Activity (MFC [8]): Active | Activity [9]: Non-Toxic | Activity (BGC-823 [10]): inactive | Activity (BGC-823 [11]): inactive | Activity (BGC-823 [12]): inactive | Activity [13]: Non-Toxic | Activity (MFC [15]): Active | Activity (BGC-823 [16]): Active | Activity (BGC-823 [17]): Active | inhibition [18]: Dose-Dependent Effect | Activity (BGC-823 [19]): Dose-Dependent Effect | Activity (BGC-823 [20]): Dose-Dependent Effect | Activity (MFC [21]): Active
